US20180353461A1, “USE OF CANNABINOIDS AS CERAMIDE-GENERATING ANTICANCER AGENTS IN TUMORS OF THE HEMATOPOIETIC AND LYMPHOID TISSUES” (priority 2014, published 2018)

Key:
[1] = test system: U266 cells; experiment: MM xenograft (U266 cells, subcutaneous) in NSG mice; format: in vivo; conditions: 5 mg/kg WIN-55,212-2 intraperitoneally every 24 h or 48 h
Experimental: NOD/scid/IL-2R gammae null (NSG) mice were purchased from Charles River Laboratories International (L'Arbresle, France) and maintained with food and water ad libitum, under specific pathogen-free conditions. When mice were 8-9 weeks old, human tumor xenografts were induced by subcutaneous inoculation in suprascapular area of MM cell line U266 cells. To establish tumor, 5×10e6 cells were resuspended in 100 ul RPMI medium without serum and 100 ul of Matrigel (BD Biosciences). To easy visualization the hair was trimmed from the site of inoculation. Closely second week following implantation, when tumors became palpable (>0.5 cm), mice were randomly assigned to the following groups (10 mice per group): group 1 received intraperitoneally 5 mg/kg WIN-55,212-2 every 24 h, group 2 received the treatment every 48 hl and group 3 received vehicle. […] Tumor growth was assessed three times each week following tumor implantation. Two bisecting diameters of each tumor were measured with calipers, and the volume was calculated using the formula length x (width) e2×0.4 mm3. […]
The administration with cannabinoids inhibits remarkably the growth of tumor in vivo. Finally, we analyzed the anti-tumor effect of the cannabinoids in vivo, using a model of human MM xenografted in immunodeficient mice NOD/SCID. […]

[2] = test system: HL60 cells; experiment: Western blot of signaling pathways (MAPKs, Akt) in HL60 cells; format: cell-based, human
Experimental: Protein analyses were performed by Western blot in several sets of assays: expression pattern of CBs-receptors in AML cell lines and primary cells, and time course after treatment with cannabinoids in AML cell lines.
Cells were solubilized with ice-cold lysis buffer containing 2% ASB-14 (CalbioChem, San Diego, Calif., USA), 1% Nonidet P-40 (Ipegal®), 137 mM NaCl, 20 mM Tris-HCl pH 7.5 at 4° C. (all from Sigma-Aldrich), 2 mM Na3VO4, 20 mM NaF (New England BioLabs Inc., Ipswich, Mass., USA), 2 mM DTT (AppliChem, Darmstadt, Germany), protease inhibitor cocktail (Roche Diagnostics GmbH, Mannheim, Germany), and 10 ul Nuclease Mix (Amersham GE Healthcare, Uppsala, Sweden). Insoluble materials were removed by centrifugation at 13,000×g for 15 min at 4° C. Protein content was determined by Pierce® Microplate BCA Protein Assay kit-Reducing Agent Compatible (Thermo Fisher Scientific).
Extracted proteins (15-25 ug/well) were separated by sodium dodecyl sulfate-polyacrylamide gel electrophoresis (SDS/PAGE) in pre-cast polyacrylamide gels AnykD (Bio-Rad Laboratories, Hercules, Calif., USA) under reducing and denaturing conditions. Electrophoretic run was performed at a constant current of 15 mA per gel in a Mini-Protean® Tetra Cell (Bio-Rad Laboratories) and were electrophoretically transferred onto PVDF membranes using Trans-Blot® Turbo™ System (Bio-Rad Laboratories). Blocking was performed with 2% bovine serum albumin [(BSA), Santa Cruz Biotechnology] in Tween-Tris buffer saline (TTBS). Membranes were incubated overnight at 4° C. with corresponding primary antibody in TTBS.
Detection was performed using Western Blotting Luminol Reagent (Santa Cruz Biotechnology).
Signaling pathways targeted by cannabinoids in leukemic cells. To get further insights into the mechanisms of cannabinoids-induced apoptosis, we assessed the expression profile of phosphorylated-JNK, -Erk1/2, -p38 MAPK and -Akt by Western blot.

CS(=O)(=O)O.Cc1c(C(=O)c2cccc3ccccc23)c2cccc3c2n1[C@H](CN1CCOCC1)CO3 [WIN-55, (R)-(+)-[2,3-dihydro-5-methyl-3-(4-morpholinylmethyl)-pyrrolo-[1,2,3]-1,4-benzoxazin-6-yl]-1-naphthalenylmethanone mesylate] was tested, and the “tumor volume / tumor growth compared to vehicle-treated counterparts” value [1] was “inhibit tumor growth”, the p-Erk1/2 ([2]; HL60, WIN-55 50 uM) was “slightly up-regulated” and the p-Akt ([2]; HL60, time-dependent) was “significantly downregulated”. For the same compound, the “p-p38 MAPK” value ([2]; HL60, time-dependent) was “moderately downregulated”.
